Measurements reported in patent US20250186627A1, “RADIOLABELED COMPOUNDS TARGETING THE PROSTATE-SPECIFIC MEMBRANE ANTIGEN” (PROVINCIAL HEALTH SERVICES AUTHORITY, priority 2022, published 2025).
One block for each compound: values may come before it. *1 amine or outer side, *2 acyl side, *3 side chain or, on linkers, in order; H or OH if unused. Where a SMILES comes first, the peptide text is derived from it. [ ]: non-standard residue; d: D form. The star is where a group is joined. ξ: configuration not given here. ξLys(Nα-CO-ξAad) = O=C(O)CCCC(NC(=O)NC(CCCCN*)C(=O)O)C(=O)O; DOTA = O=C(O)CN1CCN(CC(=O)O)CCN(CC(=O)*)CCN(CC(=O)O)CC1; Butanoyl(4-(4-MeO-phenyl)) = COc1ccc(CCCC(=O)*)cc1; ξAla(9-anthryl) = NC(Cc1c2ccccc2cc2ccccc12)C(=O)O; X1 = O=C(C1CCC(CN[*:1])CC1)[*:2]; ξK = NCCCCC(N)C(=O)O

Tested on: NRG-mice bearing LNCaP tumors
Test: Biodistribution (and PET/SPECT imaging) in NRG-mice bearing LNCaP tumors
Assay type: in vivo
Details: for Biodistribution: Adrenal gland / Biodistribution: Blood / Biodistribution: Bone / Biodistribution: Brain / Biodistribution: Fat / Biodistribution: Heart / Biodistribution: Intestine / Biodistribution: LNCaP tumor / Biodistribution: Liver / Biodistribution: Lungs / Biodistribution: Muscle / Biodistribution: Pancreas / Biodistribution: Salivary gland / Biodistribution: Seminal gland / Biodistribution: Spleen / Biodistribution: Stomach / Biodistribution: Testes / Biodistribution: Thyroid / Biodistribution: Urine / Biodistribution: kidney: Avg
Procedure, shortened: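 LNCaP xenografts (~10 million cells, left dorsal flank) grown 4-6 weeks to 200-600 mm^3 in NRG mice. Tail-vein injection of 4-6 MBq ^68Ga or 18.5 MBq ^177Lu tracer under isoflurane; CT then 10-min static PET or 1-h SPECT. Biodistribution by gamma counting of weighed organs, expressed as %ID/g.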

Biodistribution: Adrenal gland (1 h p.i.): 3.28 % ID/g
Biodistribution: Blood (1 h p.i.): 15.78 % ID/g
Biodistribution: Bone (1 h p.i.): 0.92 % ID/g
Biodistribution: Brain (1 h p.i.): 0.25 % ID/g
Biodistribution: Fat (1 h p.i.): 1.52 % ID/g
Biodistribution: Heart (1 h p.i.): 3.19 % ID/g
Biodistribution: Intestine (1 h p.i.): 1.46 % ID/g
Biodistribution: LNCaP tumor (1 h p.i.): 11.16 % ID/g
Biodistribution: Liver (1 h p.i.): 2.98 % ID/g
Biodistribution: Lungs (1 h p.i.): 5.90 % ID/g
Biodistribution: Muscle (1 h p.i.): 1.07 % ID/g
Biodistribution: Pancreas (1 h p.i.): 1.34 % ID/g
Biodistribution: Salivary gland (1 h p.i.): 2.19 % ID/g
Biodistribution: Seminal gland (1 h p.i.): 0.72 % ID/g
Biodistribution: Spleen (1 h p.i.): 1.28 % ID/g
Biodistribution: Stomach (1 h p.i.): 0.46 % ID/g
Biodistribution: Testes (1 h p.i.): 1.77 % ID/g
Biodistribution: Thyroid (1 h p.i.): 2.54 % ID/g
Biodistribution: Urine (1 h p.i.): 177.03 % ID/g
Biodistribution: kidney (1 h p.i.): 11.93 % ID/g
Biodistribution: Adrenal gland (3 h p.i.): 3.36 % ID/g
Biodistribution: Blood (3 h p.i.): 10.81 % ID/g
Biodistribution: Bone (3 h p.i.): 1.20 % ID/g
Biodistribution: Brain (3 h p.i.): 0.19 % ID/g
Biodistribution: Fat (3 h p.i.): 1.04 % ID/g
Biodistribution: Heart (3 h p.i.): 2.55 % ID/g
Biodistribution: Intestine (3 h p.i.): 1.17 % ID/g
Biodistribution: LNCaP tumor (3 h p.i.): 22.60 % ID/g
Biodistribution: Liver (3 h p.i.): 2.13 % ID/g
Biodistribution: Lungs (3 h p.i.): 4.65 % ID/g
Biodistribution: Muscle (3 h p.i.): 1.13 % ID/g
Biodistribution: Pancreas (3 h p.i.): 1.10 % ID/g
Biodistribution: Salivary gland (3 h p.i.): 2.18 % ID/g
Biodistribution: Seminal gland (3 h p.i.): 1.63 % ID/g
Biodistribution: Spleen (3 h p.i.): 1.01 % ID/g
Biodistribution: Stomach (3 h p.i.): 0.84 % ID/g
Biodistribution: Testes (3 h p.i.): 2.07 % ID/g
Biodistribution: Thyroid (3 h p.i.): 2.09 % ID/g
Biodistribution: Urine (3 h p.i.): 84.38 % ID/g
Biodistribution: kidney (3 h p.i.): 10.94 % ID/g
SMILES: COc1ccc(CCCC(=O)NCC(=O)NC(CCCCNC(=O)CN2CCN(CC(=O)[O-])CCN(CC(=O)[O-])CCN(CC(=O)[O-])CC2)CC(=O)NCC2CCC(C(=O)NC(Cc3c4ccccc4cc4ccccc34)C(=O)NCCCCC(NC(=O)NC(CCCC(=O)O)C(=O)O)C(=O)O)CC2)cc1.[68Ga+3] (stereo not drawn) [^68Ga-CCZ02015]

Blood radioactivity (1 and 3 h p.i.): high and sustained blood radioactivity
Biodistribution: Adrenal gland (1 h p.i.): 3.82 % ID/g
Biodistribution: Blood (1 h p.i.): 19.52 % ID/g
Biodistribution: Bone (1 h p.i.): 0.77 % ID/g
Biodistribution: Brain (1 h p.i.): 0.30 % ID/g
Biodistribution: Fat (1 h p.i.): 1.35 % ID/g
Biodistribution: Heart (1 h p.i.): 4.02 % ID/g
Biodistribution: Intestine (1 h p.i.): 1.72 % ID/g
Biodistribution: LNCaP tumor (1 h p.i.): 7.11 % ID/g
Biodistribution: Liver (1 h p.i.): 3.04 % ID/g
Biodistribution: Lungs (1 h p.i.): 6.51 % ID/g
Biodistribution: Muscle (1 h p.i.): 1.15 % ID/g
Biodistribution: Pancreas (1 h p.i.): 1.56 % ID/g
Biodistribution: Salivary gland (1 h p.i.): 2.74 % ID/g
Biodistribution: Seminal gland (1 h p.i.): 0.88 % ID/g
Biodistribution: Spleen (1 h p.i.): 1.56 % ID/g
Biodistribution: Stomach (1 h p.i.): 0.71 % ID/g
Biodistribution: Testes (1 h p.i.): 2.33 % ID/g
Biodistribution: Thyroid (1 h p.i.): 2.92 % ID/g
Biodistribution: Urine (1 h p.i.): 63.67 % ID/g
Biodistribution: kidney (1 h p.i.): 7.57 % ID/g
Biodistribution: Adrenal gland (3 h p.i.): 4.34 % ID/g
Biodistribution: Blood (3 h p.i.): 19.18 % ID/g
Biodistribution: Bone (3 h p.i.): 1.62 % ID/g
Biodistribution: Brain (3 h p.i.): 0.32 % ID/g
Biodistribution: Fat (3 h p.i.): 1.52 % ID/g
Biodistribution: Heart (3 h p.i.): 3.76 % ID/g
Biodistribution: Intestine (3 h p.i.): 1.53 % ID/g
Biodistribution: LNCaP tumor (3 h p.i.): 17.69 % ID/g
Biodistribution: Liver (3 h p.i.): 3.35 % ID/g
Biodistribution: Lungs (3 h p.i.): 7.15 % ID/g
Biodistribution: Muscle (3 h p.i.): 1.34 % ID/g
Biodistribution: Pancreas (3 h p.i.): 1.41 % ID/g
Biodistribution: Salivary gland (3 h p.i.): 3.82 % ID/g
Biodistribution: Seminal gland (3 h p.i.): 1.73 % ID/g
Biodistribution: Spleen (3 h p.i.): 2.17 % ID/g
Biodistribution: Stomach (3 h p.i.): 0.73 % ID/g
Biodistribution: Testes (3 h p.i.): 2.28 % ID/g
Biodistribution: Thyroid (3 h p.i.): 3.59 % ID/g
Biodistribution: Urine (3 h p.i.): 56.09 % ID/g
Biodistribution: kidney (3 h p.i.): 9.28 % ID/g
SMILES: COc1ccc(CCCC(=O)NCC(=O)NC(CCCCNC(=O)CN2CCN(CC(=O)[O-])CCN(CC(=O)[O-])CCN(CC(=O)[O-])CC2)C(=O)NCC(=O)NCC2CCC(C(=O)NC(Cc3c4ccccc4cc4ccccc34)C(=O)NCCCCC(NC(=O)NC(CCCC(=O)O)C(=O)O)C(=O)O)CC2)cc1.[68Ga+3] (stereo not drawn) [^68Ga-CCZ02009] ({Butanoyl(4-(4-MeO-phenyl))}-G[ξK](DOTA)G[X1][ξAla(9-anthryl)]-{ξLys(Nα-CO-ξAad)})
